# Source: ChEMBL document CHEMBL3885861, “Open TG-GATES”
# Organism: Rattus norvegicus
# Test: Open TG-GATES - Regimen: Single
# Type: toxicity, organism-based, Sprague-Dawley
# Parameters: regimen Single, gender Male, age 6 weeks
# Details: in vivo, po, 100 mg/kg, route gavage, dose level Low; for APTT / Bas / Eos / Fbg / Hb / Ht / Lym / MCH / MCHC / MCV / Mono / Neu / PT / Plat / RBC / Ret / WBC: tissue Blood; for KIDNEY_L / KIDNEY_R / KIDNEY_TOTAL: tissue Kidney; for LIVER: tissue Liver; for A/G / ALP / ALT / AST / BUN / CRE / Ca / Cl / DBIL / GLC / IP / LDH / Na / PL / RALB / TBIL / TC / TG / TP / gamma-GTP: tissue Plasma
smiles,measurement,setting,value
NC(N)=Nc1nc(CSCCC(N)=NS(N)(=O)=O)cs1 [FAMOTIDINE],TERMINAL_BW,3 h,213.7 g
same,APTT,3 h,19.6 s
same,Bas,3 h,0%
same,Eos,3 h,0.6%
same,Fbg,3 h,217.4 mg/dL
same,Hb,3 h,13.5 g/dL
same,Ht,3 h,38.2%
same,Lym,3 h,71.2%
same,MCH,3 h,22.6 pg
same,MCHC,3 h,35.3%
same,MCV,3 h,64.1 fL
same,Mono,3 h,2.4%
same,Neu,3 h,24%
same,PT,3 h,12.3 s
same,Plat,3 h,112.1 x10_4/uL
same,RBC,3 h,596.2 x10_4/ul
same,Ret,3 h,7.2%
same,WBC,3 h,80 x10_2/uL
same,KIDNEY_L,3 h,1 g
same,KIDNEY_R,3 h,1 g
same,KIDNEY_TOTAL,3 h,1.9 g
same,LIVER,3 h,10.3 g
same,A/G,3 h,1.7
same,ALP,3 h,1057.6 IU/L
same,ALT,3 h,38 IU/L
same,AST,3 h,64.8 IU/L
same,BUN,3 h,9.4 mg/dL
same,CRE,3 h,0.4 mg/dL
same,Ca,3 h,10.5 mg/dL
same,Cl,3 h,104.2 meq/L
same,DBIL,3 h,0.076 mg/dL
same,GLC,3 h,196.2 mg/dL
same,IP,3 h,9.2 mg/dL
same,LDH,3 h,186.2 IU/L
same,Na,3 h,141 meq/L
same,PL,3 h,144.6 mg/dL
same,RALB,3 h,3.4 g/dL
same,TBIL,3 h,0.1 mg/dL
same,TC,3 h,79 mg/dL
same,TG,3 h,56.6 mg/dL
same,TP,3 h,5.5 g/dL
same,gamma-GTP,3 h,1 IU/L
same,TERMINAL_BW,6 h,212.2 g
same,APTT,6 h,18.5 s
same,Bas,6 h,0%
same,Eos,6 h,0.8%
same,Fbg,6 h,222.2 mg/dL
same,Hb,6 h,13.4 g/dL
same,Ht,6 h,37.5%
same,Lym,6 h,71.4%
same,MCH,6 h,22.2 pg
same,MCHC,6 h,35.7%
same,MCV,6 h,62.3 fL
same,Mono,6 h,2.6%
same,Neu,6 h,22.8%
same,PT,6 h,12.4 s
same,Plat,6 h,120.7 x10_4/uL
same,RBC,6 h,602.6 x10_4/ul
same,Ret,6 h,6.8%
same,WBC,6 h,98.6 x10_2/uL
same,KIDNEY_L,6 h,1 g
same,KIDNEY_R,6 h,0.9 g
same,KIDNEY_TOTAL,6 h,1.9 g
same,LIVER,6 h,9.4 g
same,A/G,6 h,1.5
same,ALP,6 h,808.4 IU/L
same,ALT,6 h,34.2 IU/L
same,AST,6 h,68 IU/L
same,BUN,6 h,9.4 mg/dL
same,CRE,6 h,0.4 mg/dL
same,Ca,6 h,10.7 mg/dL
same,Cl,6 h,103.2 meq/L
same,DBIL,6 h,0.068 mg/dL
same,GLC,6 h,189.4 mg/dL
same,IP,6 h,9 mg/dL
same,LDH,6 h,202 IU/L
same,Na,6 h,140.4 meq/L
same,PL,6 h,141.2 mg/dL
same,RALB,6 h,3.2 g/dL
same,TBIL,6 h,0.1 mg/dL
same,TC,6 h,82 mg/dL
same,TG,6 h,60 mg/dL
same,TP,6 h,5.4 g/dL
same,gamma-GTP,6 h,1.4 IU/L
same,TERMINAL_BW,9 h,209.4 g
same,APTT,9 h,18.3 s
same,Bas,9 h,0%
same,Eos,9 h,0.8%
same,Fbg,9 h,232.2 mg/dL
same,Hb,9 h,13.4 g/dL
same,Ht,9 h,37.1%
same,Lym,9 h,74.2%
same,MCH,9 h,22 pg
same,MCHC,9 h,36%
same,MCV,9 h,61.2 fL
same,Mono,9 h,2.2%
same,Neu,9 h,19.2%
same,PT,9 h,12.1 s
same,Plat,9 h,116.7 x10_4/uL
same,RBC,9 h,606.6 x10_4/ul
same,Ret,9 h,7%
same,WBC,9 h,87.3 x10_2/uL
same,KIDNEY_L,9 h,0.9 g
same,KIDNEY_R,9 h,1 g
same,KIDNEY_TOTAL,9 h,1.9 g
same,LIVER,9 h,9 g
same,A/G,9 h,1.6
same,ALP,9 h,851.2 IU/L
same,ALT,9 h,31.2 IU/L
same,AST,9 h,61.2 IU/L
same,BUN,9 h,10.2 mg/dL
same,CRE,9 h,0.4 mg/dL
same,Ca,9 h,10.5 mg/dL
same,Cl,9 h,103.6 meq/L
same,DBIL,9 h,0.064 mg/dL
same,GLC,9 h,200.8 mg/dL
same,IP,9 h,8.8 mg/dL
same,LDH,9 h,135.4 IU/L
same,Na,9 h,141 meq/L
same,PL,9 h,140.8 mg/dL
same,RALB,9 h,3.4 g/dL
same,TBIL,9 h,0.1 mg/dL
same,TC,9 h,80.6 mg/dL
same,TG,9 h,62.4 mg/dL
same,TP,9 h,5.5 g/dL
same,gamma-GTP,9 h,0.8 IU/L
same,TERMINAL_BW,24 h,225.3 g
same,APTT,24 h,19.8 s
same,Bas,24 h,0%
same,Eos,24 h,1%
same,Fbg,24 h,229.6 mg/dL
same,Hb,24 h,13.3 g/dL
same,Ht,24 h,37.2%
same,Lym,24 h,78.2%
same,MCH,24 h,22.3 pg
same,MCHC,24 h,35.8%
same,MCV,24 h,62.2 fL
same,Mono,24 h,2.2%
same,Neu,24 h,16.2%
same,PT,24 h,12 s
same,Plat,24 h,121.8 x10_4/uL
same,RBC,24 h,599.4 x10_4/ul
same,Ret,24 h,6.1%
same,WBC,24 h,86.8 x10_2/uL
same,KIDNEY_L,24 h,1 g
same,KIDNEY_R,24 h,1 g
same,KIDNEY_TOTAL,24 h,2 g
same,LIVER,24 h,10.8 g
same,A/G,24 h,1.4
same,ALP,24 h,990 IU/L
same,ALT,24 h,40.6 IU/L
same,AST,24 h,68.2 IU/L
same,BUN,24 h,14.2 mg/dL
same,CRE,24 h,0.4 mg/dL
same,Ca,24 h,10.6 mg/dL
same,Cl,24 h,104.2 meq/L
same,DBIL,24 h,0.076 mg/dL
same,GLC,24 h,199.4 mg/dL
same,IP,24 h,7.7 mg/dL
same,LDH,24 h,198.4 IU/L
same,Na,24 h,140.6 meq/L
same,PL,24 h,145.8 mg/dL
same,RALB,24 h,3.3 g/dL
same,TBIL,24 h,0.1 mg/dL
same,TC,24 h,74.2 mg/dL
same,TG,24 h,82.6 mg/dL
same,TP,24 h,5.6 g/dL
same,gamma-GTP,24 h,0.6 IU/L
